Literature values, collected in patent publication US7612104B2, “Bicyclic aryl-sulfonic acid [1,3,4]-thiadiazol-2-yl-amides, processes for their preparation, pharmaceutical compositions and methods for their use” (Sanofi-Aventis, priority 2005, dated 2009).
Like-named read-outs stand apart in the source and are kept apart here.

How the values were obtained:
PPARdelta [1] = conditions: diabetic animal model; cited from earlier work
PPARdelta [2] = molecular target: T1, PPARdelta (Macaca mulatta, UniProt I0FFS1); conditions: obese, insulin resistant rhesus monkeys; cited from earlier work
T1 construct: host or cells: rhesus monkeys in vivo
T1 sequence (I0FFS1 1-441): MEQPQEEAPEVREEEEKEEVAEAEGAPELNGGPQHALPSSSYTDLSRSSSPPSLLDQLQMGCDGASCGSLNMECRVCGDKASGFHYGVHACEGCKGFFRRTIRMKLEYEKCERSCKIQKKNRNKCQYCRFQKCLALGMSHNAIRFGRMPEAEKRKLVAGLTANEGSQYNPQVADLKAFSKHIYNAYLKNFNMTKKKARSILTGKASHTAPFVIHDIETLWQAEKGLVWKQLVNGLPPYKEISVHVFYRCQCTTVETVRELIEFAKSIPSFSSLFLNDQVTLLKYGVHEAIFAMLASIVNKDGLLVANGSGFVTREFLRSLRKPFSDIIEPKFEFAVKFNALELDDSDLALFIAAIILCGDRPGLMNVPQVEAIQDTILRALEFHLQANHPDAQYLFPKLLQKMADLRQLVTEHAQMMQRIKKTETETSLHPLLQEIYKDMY

PPARdelta/PPARalpha [3] = conditions: rhesus and cynomolgus monkeys; cited from earlier work
PPARdelta/PPARalpha [4] = conditions: two weeks clinical trials in healthy volunteers; cited from earlier work

In the case of CCCc1c(OCCCOc2ccc(OCC(=O)O)cc2)ccc(C(C)=O)c1O [Example L-165041], the plasma cholesterol (PPARdelta [1]) is listed as “raises plasma cholesterol”.
For Cc1cc(SCc2sc(-c3ccc(C(F)(F)F)cc3)nc2C)ccc1OCC(=O)O [GW501516], the HDL-cholesterol (PPARdelta [2]) is given as “raises”, the insulin levels (PPARdelta [2]) is given as “decreases” and the “plasma LDL-cholesterol” value (PPARdelta [2]) is given as “decreases”. The triglycerides (PPARdelta [2]) was “decreases”.
In the case of CCCc1c(OCCCSc2nnc(SCC(=O)O)s2)ccc(C(C)=O)c1O [YM-16638], the plasma lipids (PPARdelta/PPARalpha [3]) is given as “significantly lowers” and the plasma lipids (PPARdelta/PPARalpha [4]) is given as “acts in a similar manner”.
